ChEMBL document CHEMBL3352253, “ApoE secretion modulating bromotyrosine derivative from the Australian marine sponge Callyspongia sp” (2014)

System: CCF-STTG1
Test: Induction of apolipoprotein E secretion in human CCF-STTG1 cells at 40 uM after 96 hrs by ELSA relative to control
Type: functional

SMILES: COc1c(Br)cc(CC(=O)C(=O)O)cc1Br
- fold change (FC): 1
